Our source for the IC50 values is patent US8541363B2, “Pyruvamide compounds as inhibitors of dust mite group 1 peptidase allergen and their use” (St George's Hosptial Medical School, priority 2010, dated 2013).

The term IC50 denotes the concentration that gives 50% inhibition.

Chain of Der p 1 (P08176 99-320): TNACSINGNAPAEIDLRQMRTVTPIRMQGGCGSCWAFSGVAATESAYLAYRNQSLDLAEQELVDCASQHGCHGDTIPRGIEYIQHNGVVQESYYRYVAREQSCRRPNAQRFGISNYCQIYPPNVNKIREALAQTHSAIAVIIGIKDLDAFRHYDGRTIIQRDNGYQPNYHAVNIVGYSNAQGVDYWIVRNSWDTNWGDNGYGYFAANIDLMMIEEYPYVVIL

One test has as its target Der p 1 (Dermatophagoides pteronyssinus (European house dust mite), UniProt P08176). The test is described as follows: Der p 1 enzyme activity assay (FRET fluorogenic substrate). It is filed as biochemical. Conditions: Der p 1 IC50.
On to `CNS(=O)(=O)c1ccc(CNC(=O)C(=O)[C@@H](NC(=O)[C@H](C)NC(=O)[C@@H](N2Cc3ccccc3C2=O)C(C)(C)C)C(C)C)cc1` [PVA-208], for which the IC50 was less than 20 nM.

In the case of `CC(C)[C@H](NC(=O)[C@H](C)NC(=O)[C@H](Cc1ccccc1)NC(=O)c1ccccc1)C(=O)C(=O)NCC(=O)N1CCOCC1` [PVA-068], the concentration for half-maximal inhibition (IC50) was less than 20 nM.

Staying with this test, now noted: threshold stated in text; read-out: Der p 1 IC50.
`CC(C)[C@H](NC(=O)[C@H](C)NC(=O)[C@H](Cc1ccccc1)NC(=O)c1ccc2ncsc2c1)C(=O)C(=O)NC1CCCCC1` [PVA-050]: the half-inhibitory concentration (IC50) was less than 200 nM.

As for `CC(C)C[C@H](NC(=O)[C@H](C)NC(=O)[C@H](Cc1ccccc1)NC(=O)c1ccccc1)C(=O)C(=O)N[C@@H](C)c1ccccc1` [PVA-002], the IC50 is less than 200 nM.

`CC(C)[C@H](NC(=O)[C@H](C)NC(=O)[C@@H](NC(=O)c1ccccc1)C(C)(C)C)C(=O)C(=O)NCc1ccc(N2CCN(C)CC2)cc1` [PVA-162]: the IC50 is less than 20 nM. Still for that read-out and setting: the result for `CC(C)[C@H](NC(=O)[C@H](C)NC(=O)[C@@H](NC(=O)c1ccnc2ccccc12)C(C)(C)C)C(=O)C(=O)NCC(=O)N1CCN(C(C)C)CC1` [PVA-187] reads less than 20 nM; that for `CC(C)[C@H](NC(=O)[C@H](C)NC(=O)[C@@H](N1Cc2ccccc2C1=O)C(C)(C)C)C(=O)C(=O)NCC(=O)N1CCc2ccccc2C1` [PVA-212], less than 20 nM. Same read-out and setting: the result for `Cc1ccc(CNC(=O)C(=O)[C@@H](NC(=O)[C@H](C)NC(=O)[C@@H](NC(=O)c2ccccc2)C(C)(C)C)C(C)C)cc1` [PVA-205] reads less than 20 nM; that for `CC(C)C[C@H](NC(=O)[C@H](C)NC(=O)[C@H](Cc1ccccc1)NC(=O)c1ccccc1)C(=O)C(=O)NCc1ccccc1` [PVA-005], less than 20 nM; that for `CC(C)[C@H](NC(=O)[C@H](C)NC(=O)[C@@H](NC(=O)c1ccccc1)C(C)(C)C)C(=O)C(=O)NCc1ccc(C#N)cc1` [PVA-192], less than 20 nM. Consider `CC(C)[C@H](NC(=O)[C@H](C)NC(=O)C(C)(C)NC(=O)c1ccccc1)C(=O)C(=O)NC1CCCCC1` [PVA-090], for which the IC50 was less than 2000 nM.

With `CC(C)[C@H](NC(=O)[C@H](C)NC(=O)[C@@H](NC(=O)c1cccc(Cl)c1)C(C)(C)C)C(=O)C(=O)NCc1ccccc1` [PVA-183], the concentration for half-maximal inhibition (IC50) was less than 20 nM.

`CC(C)[C@H](NC(=O)[C@H](C)NC(=O)[C@@H](NC(=O)c1ccnc2ccccc12)C12CC3CC(CC(C3)C1)C2)C(=O)C(=O)NCC(=O)N1CCN(C)CC1` [PVA-147]: the IC50 was less than 20 nM. As for `COC(=O)c1cccc(CNC(=O)C(=O)[C@@H](NC(=O)[C@H](C)NC(=O)[C@@H](NC(=O)c2ccccc2)C(C)(C)C)C(C)C)c1` [PVA-199], the IC50 is less than 20 nM. Same read-out and setting: next, `CC(C)[C@H](NC(=O)[C@H](C)NC(=O)[C@@H](N1Cc2ccccc2C1=O)C(C)(C)C)C(=O)C(=O)NCc1ccc(CN(C)C)cc1` [PVA-210]: less than 20 nM.

As for `CC(C)[C@H](NC(=O)[C@H](C)NC(=O)[C@@H](NC(=O)c1ccncn1)C(C)(C)C)C(=O)C(=O)NC1CCCCC1` [PVA-082], the IC50 is less than 200 nM.

Take `CC(C)[C@H](NC(=O)[C@H](C)NC(=O)[C@@H](NC(=O)c1ccccc1)C(C)(C)C)C(=O)C(=O)NCC(=O)N1CCc2ccccc21` [PVA-112]: the IC50 is less than 20 nM.

`CC(C)[C@H](NC(=O)[C@H](C)NC(=O)[C@@H](NC(=O)c1ccccc1)C(C)(C)C)C(=O)C(=O)NCc1nccn1C` [PVA-166]: the IC50 is less than 200 nM. As for `CC(C)[C@H](NC(=O)[C@H](C)NC(=O)[C@@H](NC(=O)c1ccccc1)C(C)(C)C)C(=O)C(N)=O` [PVA-118], the IC50 was less than 20 nM. In the case of `CC(C)[C@H](NC(=O)[C@H](C)NC(=O)[C@H](Cc1ccc(N2CCN(C)CC2)cc1)NC(=O)c1ccccc1)C(=O)C(=O)NCc1ccccc1` [PVA-198], the 50% inhibitory concentration (IC50) was less than 200 nM.

Take `CC(C)[C@H](NC(=O)[C@H](C)NC(=O)[C@H](Cc1ccccc1)NC(=O)c1ccccc1)C(=O)C(=O)NC1Cc2ccccc2C1` [PVA-103]: the IC50 was less than 200 nM. The same measure, in the same setting: the result for `CC(C)[C@H](NC(=O)[C@H](C)NC(=O)[C@@H](Cc1ccccc1)NC(=O)c1cccc(Oc2ccccc2)c1)C(=O)C(=O)NC1CCCCC1` [PVA-021] reads less than 2000 nM; that for `CC(C)[C@H](NC(=O)[C@H](C)NC(=O)[C@@H](Cc1ccc(-c2ccccc2)cc1)NC(=O)c1ccccc1)C(=O)C(=O)NCc1ccccc1` [PVA-033], less than 200 nM.

For `CC(C)C(NC(=O)[C@H](C)NC(=O)[C@H](Cc1ccccc1)NC(=O)c1ccccc1)C(=O)C(=O)NCc1ccccn1` (stereo partly shown) [PVA-023], the IC50 is less than 200 nM.

On to `CC(C)[C@H](NC(=O)[C@H](C)NC(=O)[C@@H](NC(=O)c1ccccc1)C(C)(C)C)C(=O)C(=O)NCc1ccc(S(N)(=O)=O)cc1` [PVA-135], for which the IC50 was less than 20 nM. Same read-out and setting: next, `CC(C)[C@H](NC(=O)[C@H](C)NC(=O)[C@H](Cc1ccccc1)NC(=O)c1ccccc1)C(=O)C(=O)NCc1ccccc1` [PVA-009]: less than 20 nM; `CC(C)[C@H](NC(=O)[C@H](C)NC(=O)[C@H](Cc1ccccc1C(F)(F)F)NC(=O)c1ccncc1)C(=O)C(=O)NCc1ccccc1` [PVA-152]: less than 200 nM. Still for that read-out and setting: next, `CC(C)[C@H](NC(=O)[C@H](C)NC(=O)[C@@H](NC(=O)c1cccc2ccccc12)C(C)(C)C)C(=O)C(=O)NC1CCCCC1` [PVA-052]: less than 200 nM; `CC(C)[C@H](NC(=O)[C@H](C)NC(=O)[C@H](Cc1ccccc1)NC(=O)c1ccccc1)C(=O)C(=O)NC1CCN(C)CC1` [PVA-083]: less than 200 nM. The same measure, in the same setting: next, `COc1ccc(CNC(=O)C(=O)[C@@H](NC(=O)[C@H](C)NC(=O)[C@H](Cc2ccccc2)NC(=O)c2ccccc2)C(C)C)cc1` [PVA-042]: less than 20 nM.

In the case of `CC(C)C[C@H](NC(=O)[C@H](C)NC(=O)[C@H](Cc1ccccc1)NC(=O)c1ccccc1)C(=O)C(=O)NC(C)C` [PVA-004], the half-maximal inhibitory concentration (IC50) is less than 200 nM.

Consider `CC(C)[C@H](NC(=O)[C@H](C)NC(=O)[C@@H](NC(=O)c1ccccc1)C(C)(C)C)C(=O)C(=O)NCC(=O)N1CCOCC1` [PVA-079], for which the IC50 was less than 20 nM. Same read-out and setting: next, `CC(C)[C@H](NC(=O)[C@H](C)NC(=O)[C@@H](NC(=O)c1ccccc1)C(C)(C)C)C(=O)C(=O)NCc1ccc(F)cc1` [PVA-178]: less than 20 nM; `CC(C)[C@H](NC(=O)[C@H](C)NC(=O)[C@@H](NC(=O)c1ccccc1)C(C)(C)C)C(=O)C(=O)NCc1cccc(C(=O)OC(C)(C)C)c1` [PVA-200]: less than 200 nM.

Take `CC(C)[C@H](NC(=O)[C@H](C)NC(=O)[C@@H](NC(=O)c1ccccc1)C(C)(C)C)C(=O)C(=O)NCc1cccc(C(N)=O)c1` [PVA-155]: the IC50 was less than 20 nM. Same read-out and setting: next, `CNC(=O)C(=O)[C@@H](NC(=O)[C@H](C)NC(=O)[C@@H](NC(=O)c1ccccc1)C(C)(C)C)C(C)C` [PVA-117]: less than 200 nM; `CC(C)[C@H](NC(=O)[C@H](C)NC(=O)[C@H](Cc1ccccc1)NC(=O)c1ccnc(N2CCOCC2)c1)C(=O)C(=O)NC1CCCCC1` [PVA-069]: less than 2000 nM. On the same count and under the same terms, next, `COc1ccc(CNC(=O)C(=O)[C@@H](NC(=O)[C@H](C)NC(=O)[C@@H](NC(=O)c2ccccc2)C(C)(C)C)C(C)C)cc1` [PVA-204]: less than 20 nM. Consider `CC(C)[C@H](NC(=O)[C@H](C)NC(=O)C1CCCN1C(=O)c1ccccc1)C(=O)C(=O)NC1CCCCC1` (stereo partly shown) [PVA-101], for which the half-inhibitory concentration (IC50) was less than 200 nM. Same read-out and setting: next, `CC(C)[C@H](NC(=O)[C@H](C)NC(=O)[C@H](Cc1cccc2ccccc12)NC(=O)c1cccc2ccccc12)C(=O)C(=O)NCC(=O)N1CCN(C)CC1` [PVA-138]: less than 200 nM. Still for that read-out and setting: next, `CC(C)[C@H](NC(=O)[C@H](C)NC(=O)[C@@H](NC(=O)c1ccccc1)C(C)(C)C)C(=O)C(=O)NCc1ccc(Cl)cc1` [PVA-179]: less than 200 nM.

Regarding `CC(C)[C@H](NC(=O)[C@H](C)NC(=O)[C@@H](NC(=O)c1ccccc1)C(C)(C)C)C(=O)C(=O)NCc1cccc(N2CCN(C)CC2)c1` [PVA-190], the IC50 was less than 200 nM. For the compound `CC(C)[C@H](NC(=O)[C@H](C)NC(=O)[C@@H](NC(=O)c1ccccc1)C(C)(C)C)C(=O)C(=O)NCc1cccc(Cl)c1` [PVA-191], the half-inhibitory concentration (IC50) was less than 200 nM.

Turning to `Cc1ccccc1C[C@H](NC(=O)c1ccncc1)C(=O)N[C@@H](C)C(=O)N[C@H](C(=O)C(=O)NCc1ccccc1)C(C)C` [PVA-151], the half-inhibitory concentration (IC50) is less than 20 nM. Still for that read-out and setting: the result for `CC(C)[C@H](NC(=O)[C@H](C)NC(=O)[C@@H](NC(=O)c1ccccc1)C(C)(C)C)C(=O)C(=O)N[C@H]1CCc2ccccc21` [PVA-110] reads less than 200 nM; that for `CC(C)[C@H](NC(=O)[C@H](C)NC(=O)[C@@H](NC(=O)c1ccc2ncsc2c1)C(C)(C)C)C(=O)C(=O)NC1CCCCC1` [PVA-053], less than 200 nM. Same read-out and setting: next, `CC(C)[C@H](NC(=O)[C@H](C)NC(=O)[C@@H](NC(=O)c1ccc(C(=O)O)cc1)C(C)(C)C)C(=O)C(=O)NCC(=O)N1CCN(C)CC1` [PVA-131]: less than 200 nM. The same measure, in the same setting: next, `CC(C)[C@H](NC(=O)[C@H](C)NC(=O)[C@@H](NC(=O)c1ccccc1)C(C)(C)C)C(=O)C(=O)NCc1ccc(C(F)(F)F)cc1` [PVA-181]: less than 200 nM; `CC(C)[C@H](NC(=O)[C@H](C)NC(=O)[C@H](Cc1cccc2ccccc12)NC(=O)c1ccccc1)C(=O)C(=O)NCC(=O)N1CCN(C)CC1` [PVA-137]: less than 20 nM.

In the case of `CC(C)[C@H](NC(=O)[C@H](C)NC(=O)[C@@H](NC(=O)c1ccccc1)C(C)(C)C)C(=O)C(=O)N[C@H](C)C(=O)N1CCN(C)CC1` [PVA-125], the 50% inhibitory concentration (IC50) is less than 200 nM.

In the case of `CC(C)[C@H](NC(=O)[C@H](C)NC(=O)[C@@H](NC(=O)c1ccccc1)C(C)(C)C)C(=O)C(=O)NCc1ccnn1C` [PVA-167], the half-inhibitory concentration (IC50) is less than 200 nM. For the compound `CC(C)C(NC(=O)[C@H](C)NC(=O)[C@H](Cc1ccccc1)NC(=O)c1ccccc1)C(=O)C(=O)NCc1ccncc1` (stereo partly shown) [PVA-022], the concentration for half-maximal inhibition (IC50) was less than 200 nM. On the same count and under the same terms, the result for `Cc1cc(C(=O)N[C@H](C(=O)N[C@@H](C)C(=O)N[C@H](C(=O)C(N)=O)C(C)C)C(C)(C)C)[nH]n1` [PVA-148] reads less than 200 nM; that for `CC(C)[C@H](NC(=O)[C@H](C)NC(=O)[C@@H](NC(=O)c1ccccc1)C(C)(C)C)C(=O)C(=O)NCc1ccc(=O)[nH]c1` [PVA-134], less than 20 nM. The same measure, in the same setting: next, `CC(C)C(NC(=O)[C@H](C)NC(=O)[C@H](Cc1ccccc1)NC(=O)c1ccccc1)C(=O)C(=O)NCc1cccnc1` (stereo partly shown) [PVA-024]: less than 200 nM.
